Source: patent US20240246913A1, “2-CARBOXYL-INDOLE INHIBITORS OF METALLO-BETA-LACTAMASES” (Oxford University Innovation Limited, priority 2021, published 2024)

Tests used:
[1] = target: NDM-1 (Klebsiella pneumoniae, UniProt C7C422); test: MBL inhibition, FC-5 fluorescence assay, NDM-1; type: biochemical; conditions: FC-5 cephalosporin substrate, fluorescence; ranges of obtained pIC50; read-out: pIC50 NDM-1 (converted)
In short: (§1)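 Reported potencies derive from normalized dose-response fits with variable slope, built on initial hydrolysis rates of fluorogenic cephalosporin FC-5 monitored at 380/460 nm, with quadruplicate wells at every concentration.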

[2] = Metabolic stability in mouse hepatocytes; type: in vitro ADME; conditions: cryopreserved mouse hepatocytes, 1 μM compound, 37° C., up to 90 min, read-out: Metabolic stability in hepatocytes, in vitro t1/2, Mouse
Description: (§2) Metabolic stability assays were performed in cryopreserved human and mouse hepatocytes. The hepatocytes were thawed and added to “Thawing media”, and centrifuged to pellet the hepatocytes. The cell pellet was taken up in Williams medium E (Invitrogen A1217601), the number of cells was calculated and adjusted to 1.0×10^6 cells/mi. The incubation was carried out on a heater-shaker at […], in a 24-well Picoplate (round bottom, PerkinElmer), using an incubation volume of […]. Thus, to obtain a final compound concentration of 1 μM, 0.7 μl of the 1 mM compound stock solution was pipetted to the wells of the plate. Reaction was initiated by adding 700 μl of cell suspension. Samples were incubated at 37° C. for […] and a zero sample was taken, i.e. 100 μl sample was removed to a 96-well plate and the reaction was quenched by adding 100 μl of 100% MeCN containing 50 nM Warfarin as an internal control. Consecutive samples were taken at time-points 5 min, 15 min, 30 min, 60 min, and 90 min. After finishing the experiment, samples were centrifuged at 3000 rpm for 15 min and before analysis by LC-MS/MS (Waters Corp, Milford, MA, USA).

[3] = Plasma protein binding, equilibrium dialysis, human plasma; type: in vitro ADME; conditions: pH 7.4, equilibrium dialysis (RED) 4 hours at 37° C., read-out: Plasma protein binding, fu, Human
In short: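 Compound at 10 μM in plasma dialysed against 67 mM phosphate buffer pH 7.4 for 4 h at 37° C. in RED device; unbound fraction from buffer and plasma levels by LC-MS/MS. Plasma stability checked in parallel over 4 h at 37° C. versus frozen control.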

[4] = target: VIM-2 (Escherichia coli, UniProt Q5U7L7); test: MBL inhibition, FC-5 fluorescence assay, VIM-2; type: biochemical; conditions: FC-5 cephalosporin substrate, ranges of obtained pIC50, read-out: pIC50 VIM-2 (converted)
In short: as §1

[5] = Plasma protein binding, equilibrium dialysis, mouse plasma; type: in vitro ADME; conditions: pH 7.4, equilibrium dialysis (RED) 4 hours at 37° C., read-out: Plasma protein binding, fu, Mouse
Description: The fraction of unbound compound (fu) in plasma from human or other animal species was determined by equilibrium dialysis at 37° C. for 4 hours using the Rapid Equilibrium Dialysis (RED) device (ThermoFisher Scientific). The test compound at a concentration of 10 μM was added to plasma and dialyzed against isotonic phosphate buffer (67 mM, pH 7.4) over 4 hours at 37° C. After dialysis, compound concentrations in buffer and plasma were quantified by LC-MS/MS. In parallel the stability of the compound in plasma was determined by incubating drug-spiked plasma (10 μM) at 37° C. for 4 hours, meanwhile the control plasma sample was kept in the freezer. The concentration of the compound in both samples was quantified by LC-MS/MS (Waters Corp, Milford, MA, USA).

[6] = tested on: Escherichia coli NDM-1; test: Antibiotic susceptibility testing (MIC), EC NDM-1; type: cell-based; conditions: agar or broth dilution (CLSI/EUCAST)
Description: (§3) Antibiotic susceptibility testing was performed using the agar or broth dilution method, in line with the Clinical and Laboratory Standards Institute (CLSI) and European Committee on Antimicrobial Susceptibility Testing (EUCAST) requirements.

[7] = tested on: Acinetobacter baumannii NDM-1; test: Antibiotic susceptibility testing (MIC), AB NDM-1; type: cell-based; conditions: agar or broth dilution (CLSI/EUCAST)
Description: as §3

[8] = target: VIM-1 (Pseudomonas aeruginosa, UniProt A0A0F7KYQ8); test: MBL inhibition, FC-5 fluorescence assay, VIM-1; type: biochemical; conditions: FC-5 cephalosporin substrate, ranges of obtained pIC50, read-out: pIC50 VIM-1 (converted)
In short: as §1

[9] = tested on: Escherichia coli NDM-7; test: Antibiotic susceptibility testing (MIC), EC NDM-7; type: cell-based; conditions: agar or broth dilution (CLSI/EUCAST)
Description: as §3

[10] = Metabolic stability in human hepatocytes; type: in vitro ADME; conditions: cryopreserved human hepatocytes, 1 μM compound, 37° C., up to 90 min, read-out: Metabolic stability in hepatocytes, in vitro t1/2, Human
Description: as §2

[11] = target: IMP-1 (Serratia marcescens, UniProt P52699); test: MBL inhibition, FC-5 fluorescence assay, IMP-1; type: biochemical; conditions: FC-5 cephalosporin substrate, fluorescence; ranges of obtained pIC50; read-out: pIC50 IMP-1 (converted)
In short: as §1

Sequence of IMP-1 (P52699 19-246, looked up, species assumed): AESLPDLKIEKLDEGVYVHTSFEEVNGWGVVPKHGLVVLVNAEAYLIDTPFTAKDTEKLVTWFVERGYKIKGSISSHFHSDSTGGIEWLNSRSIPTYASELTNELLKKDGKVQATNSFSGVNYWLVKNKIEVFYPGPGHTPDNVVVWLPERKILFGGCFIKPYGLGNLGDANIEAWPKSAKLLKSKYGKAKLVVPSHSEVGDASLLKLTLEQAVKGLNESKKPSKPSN
Sequence of NDM-1 (C7C422 29-270, looked up, species assumed): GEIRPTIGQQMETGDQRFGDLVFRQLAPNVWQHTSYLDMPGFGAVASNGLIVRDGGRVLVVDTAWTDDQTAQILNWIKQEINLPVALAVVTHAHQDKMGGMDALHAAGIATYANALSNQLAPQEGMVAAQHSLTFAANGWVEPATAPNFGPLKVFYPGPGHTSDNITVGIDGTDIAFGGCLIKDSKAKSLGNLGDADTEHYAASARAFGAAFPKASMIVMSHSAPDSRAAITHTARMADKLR

Compound `CC(c1noc(CCCN)n1)c1cccc2c(-c3ccc(CS(C)(=O)=O)c(F)c3)c(C(=O)O)[nH]c12` (stereo not drawn) [IC-62, 7-[1-[5-(3-Aminopropyl)-1,2,4-oxadiazol-3-yl]ethyl]-3-[3-fluoro-4-(methylsulfonylmethyl)phenyl]-1H-indole-2-carboxylic acid] has an IC50 [1] of under 0.1 nM, a half-life at 1 μM [2] of 2.5 to 6.67 h and a fraction unbound at 4 h, 10 μM [3] of 0.05 to 0.25. The IC50 [4] was 0.1 to 1 nM, the fraction unbound at 4 h, 10 μM [5] was 0.005 to 0.05 and the “MIC values EC NDM-1” value [6] was “A (A = MIC values ≤ 1)”. For the same compound, the “MIC values AB NDM-1” value [7] was “A (A = MIC values ≤ 1)”, the IC50 [8] was 0.1 to 1 nM and the “MIC values EC NDM-7” value [9] was “A (A = MIC values ≤ 1)”. For the same compound, the half-life at 1 μM [10] was over 6.67 h and the IC50 [11] was 1 to 10 nM.

With `C[C@@H](c1cccc2c(-c3ccc(CS(C)(=O)=O)c(F)c3)c(C(=O)O)[nH]c12)N1CC2(CN(C(=N)N)C2)OC1=O` [IC-66, (S)-7-(1-(2-carbamimidoyl-6-oxo-5-oxa-2,7-diazaspiro[3.4]octan-7-yl)ethyl)-3-(3-fluoro-4-((methylsulfonyl)methyl)phenyl)-1H-indole-2-carboxylic acid] the IC50 [1] was 0.1 to 1 nM, the half-life at 1 μM [2] was over 6.67 h and the fraction unbound at 4 h, 10 μM [3] was over 0.25. For the same compound, the IC50 [4] was 0.1 to 1 nM, the fraction unbound at 4 h, 10 μM [5] was 0.005 to 0.05 and the “MIC values EC NDM-1” value [6] was “A (A = MIC values ≤ 1)”. The “MIC values AB NDM-1” value [7] was “B (B MIC values 2 ÷ 8)”, the IC50 [8] was 0.1 to 1 nM and the “MIC values EC NDM-7” value [9] was “A (A = MIC values ≤ 1)”. The half-life at 1 μM [10] was 2.5 to 6.67 h and the IC50 [11] was over 10 nM.

`C[C@@H](c1cccc2c(-c3ccc(CS(C)(=O)=O)c(F)c3)c(C(=O)O)[nH]c12)n1cc(CN2CC(N)C2)oc1=O` [IC-67, (S)-7-(1-(5-((3-aminoazetidin-1-yl)methyl)-2-oxooxazol-3(2H)-yl)ethyl)-3-(3-fluoro-4-((methylsulfonyl)methyl)phenyl)-1H-indole-2-carboxylic acid] showed an IC50 [1] of under 0.1 nM, a half-life at 1 μM [2] of over 6.67 h and a fraction unbound at 4 h, 10 μM [3] of 0.05 to 0.25. The IC50 [4] was 0.1 to 1 nM, the fraction unbound at 4 h, 10 μM [5] was 0.005 to 0.05 and the “MIC values EC NDM-1” value [6] was “A (A = MIC values ≤ 1)”. For the same compound, the “MIC values AB NDM-1” value [7] was “B (B MIC values 2 ÷ 8)”, the IC50 [8] was 1 to 10 nM and the “MIC values EC NDM-7” value [9] was “A (A = MIC values ≤ 1)”. The half-life at 1 μM [10] was over 6.67 h and the IC50 [11] was over 10 nM.

For `C[C@@H](c1cccc2c(-c3ccc(CS(C)(=O)=O)c(F)c3)c(C(=O)O)[nH]c12)n1cc(CCC2(N)CC2)oc1=O` [IC-69, (S)-7-(1-(5-(2-(1-Aminocyclopropyl)ethyl)-2-oxooxazol-3(2H)-yl)ethyl)-3-(3-fluoro-4-((methylsulfonyl)methyl)phenyl)-1H-indole-2-carboxylic acid], the IC50 [1] was under 0.1 nM, the half-life at 1 μM [2] was under 2.5 h and the fraction unbound at 4 h, 10 μM [3] was 0.05 to 0.25. The IC50 [4] was 0.1 to 1 nM, the fraction unbound at 4 h, 10 μM [5] was 0.005 to 0.05 and the “MIC values EC NDM-1” value [6] was “A (A = MIC values ≤ 1)”. For the same compound, the “MIC values AB NDM-1” value [7] was “B (B MIC values 2 ÷ 8)”, the IC50 [8] was 0.1 to 1 nM and the “MIC values EC NDM-7” value [9] was “A (A = MIC values ≤ 1)”. For the same compound, the half-life at 1 μM [10] was over 6.67 h and the IC50 [11] was over 10 nM.

For `C[C@@H](c1cccc2c(-c3ccc(CS(C)(=O)=O)c(F)c3)c(C(=O)O)[nH]c12)n1cc(CCCN)oc1=O` [IC-70, (S)-7-(1-(5-(3-aminopropyl)-2-oxooxazol-3(2H)-yl)ethyl)-3-(3-fluoro-4-((methylsulfonyl)methyl)phenyl)-1H-indole-2-carboxylic acid], the IC50 [1] was under 0.1 nM, the half-life at 1 μM [2] was 2.5 to 6.67 h and the fraction unbound at 4 h, 10 μM [3] was 0.05 to 0.25. The IC50 [4] was 0.1 to 1 nM, the fraction unbound at 4 h, 10 μM [5] was 0.005 to 0.05 and the “MIC values EC NDM-1” value [6] was “A (A = MIC values ≤ 1)”. The “MIC values AB NDM-1” value [7] was “A (A = MIC values ≤ 1)”, the IC50 [8] was 0.1 to 1 nM and the “MIC values EC NDM-7” value [9] was “A (A = MIC values ≤ 1)”. It also gave a half-life at 1 μM [10] of over 6.67 h and an IC50 [11] of over 10 nM.

In the case of `C[C@@H](c1cccc2c(-c3ccc(CS(C)(=O)=O)c(F)c3)c(C(=O)O)[nH]c12)N1CC2(CCC(N)CC2)OC1=O` (stereo partly drawn) [IC-71, (S)-7-(1-(8-amino-2-oxo-1-oxa-3-azaspiro[4.5]decan-3-yl)ethyl)-3-(3-fluoro-4-((methylsulfonyl)methyl)phenyl)-1H-indole-2-carboxylic acid], the IC50 [1] is reported as 1 to 10 nM, the half-life at 1 μM [2] is reported as 2.5 to 6.67 h and the fraction unbound at 4 h, 10 μM [3] is reported as over 0.25. The IC50 [4] was 1 to 10 nM, the fraction unbound at 4 h, 10 μM [5] was over 0.25 and the “MIC values EC NDM-1” value [6] was “B (B MIC values 2 ÷ 8)”. For the same compound, the “MIC values AB NDM-1” value [7] was “C (C = MIC values > 8)”, the IC50 [8] was over 10 nM and the “MIC values EC NDM-7” value [9] was “A (A = MIC values ≤ 1)”. It also gave a half-life at 1 μM [10] of over 6.67 h and an IC50 [11] of over 10 nM.

`CC(c1cccc2c(-c3ccc(CS(C)(=O)=O)c(F)c3)c(C(=O)O)[nH]c12)n1cc(CCC2(N)CC2)oc1=O` (stereo not drawn) [IC-74, 7-(1-(5-(2-(1-aminocyclopropyl)ethyl)-2-oxooxazol-3(2H)-yl)ethyl)-3-(3-fluoro-4-((methylsulfonyl)methyl)phenyl)-1H-indole-2-carboxylic acid] showed an IC50 [1] of under 0.1 nM, a half-life at 1 μM [2] of under 2.5 h and a fraction unbound at 4 h, 10 μM [3] of 0.05 to 0.25. The IC50 [4] was 0.1 to 1 nM, the fraction unbound at 4 h, 10 μM [5] was 0.05 to 0.25 and the “MIC values EC NDM-1” value [6] was “A (A = MIC values ≤ 1)”. The “MIC values AB NDM-1” value [7] was “B (B MIC values 2 ÷ 8)”, the IC50 [8] was 0.1 to 1 nM and the “MIC values EC NDM-7” value [9] was “A (A = MIC values ≤ 1)”. The half-life at 1 μM [10] was over 6.67 h and the IC50 [11] was over 10 nM.

For `CC(c1cccc2c(-c3ccc(CS(C)(=O)=O)c(F)c3)c(C(=O)O)[nH]c12)n1cc(CN)oc1=O` (stereo not drawn) [IC-79, 7-(1-(5-(Aminomethyl)-2-oxooxazol-3(2H)-yl)ethyl)-3-(3-fluoro-4-((methylsulfonyl)methyl)phenyl)-1H-indole-2-carboxylic acid], the IC50 [1] was 0.1 to 1 nM, the half-life at 1 μM [2] was under 2.5 h and the fraction unbound at 4 h, 10 μM [3] was over 0.25. For the same compound, the IC50 [4] was 1 to 10 nM, the fraction unbound at 4 h, 10 μM [5] was 0.05 to 0.25 and the “MIC values EC NDM-1” value [6] was “A (A = MIC values ≤ 1)”. The “MIC values AB NDM-1” value [7] was “A (A = MIC values ≤ 1)”, the IC50 [8] was 1 to 10 nM and the “MIC values EC NDM-7” value [9] was “A (A = MIC values ≤ 1)”. The half-life at 1 μM [10] was over 6.67 h and the IC50 [11] was over 10 nM.

For `CC(c1cccc2c(-c3ccc(CS(C)(=O)=O)c(F)c3)c(C(=O)O)[nH]c12)n1cc(CNC(=O)CN)oc1=O` (stereo not drawn) [IC-80, 7-(1-(5-((2-Aminoacetamido)methyl)-2-oxooxazol-3(2H)-yl)ethyl)-3-(3-fluoro-4-((methylsulfonyl)methyl)phenyl)-1H-indole-2-carboxylic acid], the IC50 [1] was 0.1 to 1 nM, the half-life at 1 μM [2] was under 2.5 h and the fraction unbound at 4 h, 10 μM [3] was over 0.25. For the same compound, the IC50 [4] was 1 to 10 nM, the fraction unbound at 4 h, 10 μM [5] was 0.05 to 0.25 and the “MIC values EC NDM-1” value [6] was “A (A = MIC values ≤ 1)”. The “MIC values AB NDM-1” value [7] was “B (B MIC values 2 ÷ 8)”, the IC50 [8] was 1 to 10 nM and the “MIC values EC NDM-7” value [9] was “A (A = MIC values ≤ 1)”. For the same compound, the half-life at 1 μM [10] was over 6.67 h and the IC50 [11] was over 10 nM.
